The values below come from patent publication US20240382477A1, “NITROGEN-CONTAINING HETEROCYCLIC PYRIDINE COMPOUND” (SHANGHAI ZHEYE BIOTECHNOLOGY CO. LTD., priority 2021, published 2024).

Where two headings read alike, the source gives them in different places.

In data set [1] the test system is pSTAT5 expression in CD3+ cells. Put plainly: Inhibition of pSTAT5 expression in CD3+ cells of IFN-alpha stimulated human PBMC by FACS. The settings on record: read-out: Inhibitory activity on p-STAT5 expression (IC50 value). It counts as cell-based. On the procedure:
Compound dilution and preparation: The test compound was prepared into a 10 mM solution using DMSO, and diluted in DMSO to obtain a solution with a gradient of different concentrations which was 500 times of the final concentration. 5 μL of the diluted compound was transferred into 120 μL of PBS solution containing 0.1% BSA. Positive and negative control groups were set up with 0.2% DMSO ultimately contained in each group.
• 1) Human PBMC cells were added into a 96-well cell culture plate, with 0.5 million cells and a volume of 67.5 μL per well. • 2) 3.5 μL of the diluted compound was added and mixed evenly. • 3) The incubation was carried out in a 37° C. incubator for 60 minutes. • 4) IFN-alpha was diluted to 600 ng/ml in DPBS containing 0.1% BSA. After the above 60-minute incubation, 5 μL of PE-anti-hCD3 antibody was added into each well, then 4 μL of the diluted IFN-alpha was also added into each well. • 5) The incubation was carried out in a 37° C. incubator for 30 minutes. • 6) All cells were transferred into a 96-deep-well plate and added with 1 mL of Lyse/fix buffer preheated at 37° C. • 7) The incubation was carried out in dark at 37° C. for 10 minutes. • 8) The plate was centrifuged at 600 g for 5 minutes with the supernatant abandoned, then washed twice with 1 mL of PBS and centrifuged. • 9) 1 mL of Perm buffer III was added into the cell precipitation. • 10) The incubation was carried out in dark at 4° C. for 30 minutes. • 11) The plate was centrifuged at 600 g for 5 minutes with the supernatant abandoned, then washed twice with 1 mL of PBS and centrifuged. • 12) APC anti-human pSTAT5 antibody was diluted 200 times in Staining buffer, then added into the cell wells with 100 μL per well, and mixed evenly. • 13) The incubation was carried out at room temperature for 40 minutes. • 14) The plate was washed twice with 1 mL of Staining buffer per well, and centrifuged at 600 g for 5 minutes. • 15) After the supernatant was abandoned, the cell precipitation was resuspended in 300 μL of Staining buffer. • 16) The sample was loaded and analyzed in a Beckman CytoFlex flow cytometer.
(A flow cytometer gives signals particle by particle.)

In data set [2] the test system is IL-17F. Put plainly: Rat model with increased IL-17 induced by imiquimod, intragastric administration. The data set is classed as in vivo, SD rats. The settings on record: for skin lesions in rats: after treatment by intragastric administration. On the procedure:
Experimental animal: 8 to 10-week old SD rats, half male and half female.
• (1) negative control group (applying Vaseline, administering solvent intragastrically), • (2) model control group [applying imiquimod (IMQ)], • (3) administration group (applying IMQ, administering the compounds of the present invention intragastrically).
(§1) Administration dosage and method: 20 mg/kg, BID, intragastric administration.
Model establishment: SD rat was subjected to application of 40 mg of imiquimod ointment on its back skin once a day to construct the rat model. […]
By using the same scheme as biological test example 8, the efficacy of the compounds of the present invention was evaluated, and the following test results were obtained: […]

For data set [3], the target named is TYK2-JH2 (Homo sapiens, UniProt P29597). Put plainly: Enzymology experiment in vitro: TYK2-JH2 binding (Tb antibody/Tracer fluorescence ratio). The settings on record: for IC50: read-out: TYK2-JH2 binding inhibitory activity (IC50 value).
For data set [4], the system named is psoriasis-like mouse model induced by imiquimod. Put plainly: Efficacy test in psoriasis-like mouse model induced by imiquimod (PASI score). It counts as in vivo, Balb/c mice. On the procedure:
Experimental animal: Balb/c mice.
• (1) negative control group (applying Vaseline, administering solvent intragastrically), • (2) model control group [applying imiquimod (IMQ)], • (3) administration group (applying IMQ, administering Compound 7, Compound 8, Compound 9, Compound 10, and Compound No. 146 intragastrically); • wherein, “Compound No. 146” refers to the compound in Example 146 of reference WO2014074661, which was prepared according to the method described therein.
as §1
Experiment process: On Day 0, the animals were subjected to hair shaving on the test area of the back, and then they were grouped. From Day 1 to Day 7, one hour after the first administration in every morning, 40 mg of 5% imiquimod cream was applied once to the test area on the back, after that, a second administration was conducted on the same day. The skin lesion symptoms of psoriasis and efficacy were evaluated through Psoriasis Area and Severity Index (PASI) score (erythema, scale, thickening degree). The higher the score, the more severe the symptoms are.
PASI score results on day 7 are listed in the table below, wherein, • “+” represents a score of ≥6; • “++” represents a score of greater than 5 and less than 6; • “+++” represents a score of greater than 4 and less than or equal to 5; • “++++” represents a score of less than or equal to 4.
By using the same scheme as test example 1, pharmaceutical efficacy in psoriasis-like mouse model induced by imiquimod was studied.
By using the same scheme as test example 1, pharmaceutical efficacy in psoriasis-like mouse model induced by imiquimod was studied. PASI score results on Day 7 are listed in the table below, wherein, • “+” represents a score of ≥6; • “++” represents a score of greater than 5 and less than 6; • “+++” represents a score of greater than 4 and less than or equal to 5; • “++++” represents a score of less than or equal to 4.

Data set [5] can be described thus: Pharmacokinetic study in vivo. The following applies: rat, plasma; male SD rats; 1 mg/kg IV, 10 mg/kg PO (intragastric), single administration; read-out: Absolute bioavailability(F %). On the procedure: Experimental animal: 8 to 10 week-old male SD rats, fasted 12 hours before administration. Intragastric administration: mixed solution (ethanol+TPGS+PEG300=5:5:90) was used as the administration solvent. Injection administration: mixed solution (PEG400+ddH20=80:20) was used as the administration solvent. Administration capacity: 5 ml/kg. Animal grouping: intravenous IV group and intragastric PO group, with 3 male SD rats in each group. Administration route and dosage: 1 mg/kg for intravenous IV group; 10 mg/kg for intragastric PO group. Administration frequency: single administration. • IV blood collection points: 5 minutes, 15 minutes, 30 minutes, 1 hour, 2 hours, 4 hours, 6 hours, 8 hours, and 24 hours after administration; • PO blood collection points: 15 minutes, 30 minutes, 1 hour, 2 hours, 4 hours, 6 hours, 8 hours, and 24 hours after administration. The whole blood of rat was centrifuged at 10000 rpm for 5 minutes to separate plasma, which was stored at 4° C. 0.1 ml of the plasma was taken, added with 0.2 ml of acetonitrile, vortexed for 1 minute, and centrifuged at 10000 rpm for 5 minutes to take the supernatant, which was sent for analysis of drug content after 0.22 μm filtration.

The mark [6] stands for this setting: Test Example 8, SD rats, imiquimod, 20 mg/kg BID intragastric, day 6.
[7] abbreviates: Test Example 1, Balb/c mice, imiquimod, 20 mg/kg BID intragastric, day 7, higher score = more severe.
[8] abbreviates: Test Example 6, same scheme as test example 1, day 7.
Where [9] appears, read: human PBMC, CD3+ cells, IFN-alpha stimulation, FACS.
The mark [10] stands for this setting: Test Example 9, same scheme as test example 8.

Chain of TYK2-JH2 (P29597 589-875 limits assumed): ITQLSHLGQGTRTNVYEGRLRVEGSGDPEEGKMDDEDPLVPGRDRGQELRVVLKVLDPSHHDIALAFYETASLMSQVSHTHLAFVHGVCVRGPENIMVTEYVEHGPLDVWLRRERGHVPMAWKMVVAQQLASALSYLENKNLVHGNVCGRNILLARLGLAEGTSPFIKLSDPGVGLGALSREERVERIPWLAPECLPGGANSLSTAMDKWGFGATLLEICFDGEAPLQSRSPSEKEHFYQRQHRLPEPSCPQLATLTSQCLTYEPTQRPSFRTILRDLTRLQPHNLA

`[2H]C([2H])([2H])NC(=O)c1nnc(NC(=O)C2CC2)cc1Nc1nccc(-c2ncn(CC#C)n2)c1OC` [Compound 7]: the IC50 (as a rule, the concentration at which inhibition is half-maximal) in data set [1] (Homo sapiens, PBMC) is < 1 nM; in data set [3], < 0.1 nM. Besides, the “Content level of IL-17F in skin” value in data set [2] (setting [6]) is “A (an IL-17F content less than 30 pg/mL)”. The “skin lesions in rats” value in data set [2] is on record as “significantly reduced”. Moreover, the PASI score result in data set [4] (setting [7]) and in data set [4] (setting [8]) was “++++ (a score of less than or equal to 4)” in each case.

Consider `[2H]C([2H])([2H])NC(=O)c1nnc(NC(=O)C2CC2)cc1Nc1cccc(-n2ccnn2)c1OC` [Compound 1-6], for which, in data set [4] (setting [8]), the PASI score result is “++ (a score of greater than 5 and less than 6)”.

Regarding `[2H]C([2H])([2H])NC(=O)c1nnc(NC(=O)C2CC2)cc1Nc1cccc(-c2ncn(C3(C(=O)OC)CC3)n2)c1OC` [Compound 1-7], in data set [4] (setting [8]), the PASI score result was “++ (a score of greater than 5 and less than 6)”.

On to `[2H]C([2H])([2H])NC(=O)c1nnc(NC(=O)C2CC2)cc1Nc1cccc(-c2ccn(CC#C)n2)c1OC` [Compound 2-1B-7], for which the IC50 is 5 to 10 nM in data set [1] (setting [9]) and 0.1 to 0.5 nM in data set [3]. For the same molecule, the PASI score entry in data set [4] (setting [8]) is “++ (a score of greater than 5 and less than 6)”.

Consider `[2H]C([2H])([2H])NC(=O)c1nnc(NC(=O)C2CC2)cc1Nc1cccc(-n2cccn2)c1OC` [Compound 1-5], for which the PASI score entry in data set [4] (setting [8]) is “++ (a score of greater than 5 and less than 6)”.

With `[2H]C([2H])([2H])NC(=O)c1nnc(NC(=S)C2CC2)cc1Nc1nccc(-c2ncn(C)n2)c1OC` [Compound 2-1A-1], the half-maximal inhibitory concentration (IC50) was < 1 nM in data set [1] (setting [9]) and < 0.1 nM in data set [3]. Further, in data set [2] (setting [10]), the “Content level of IL-17F in skin” value is on record as “A (an IL-17F content less than 30 pg/mL)”. Also, the “skin lesions in rats” value in data set [2] was “significantly reduced”. For the same molecule, the PASI score entry in data set [4] (setting [8]) was “++++ (a score of less than or equal to 4)”.

In the case of `[2H]C#CC([2H])([2H])n1cnc(-c2ccnc(Nc3cc(NC(=O)C4CC4)nnc3C(=O)NC([2H])([2H])[2H])c2OC)n1` [Compound 9], the IC50 is < 1 nM in data set [1] (Homo sapiens, PBMC) and < 0.1 nM in data set [3]. Further, the PASI score result in data set [4] (setting [7]) and in data set [4] (setting [8]) was “++++ (a score of less than or equal to 4)” in each case.

Take `[2H]C([2H])([2H])NC(=O)c1nnc(NC(=O)C2CC2)nc1Nc1cccc(-c2ncn(CC#C)n2)c1OC` [Compound 2-1B-2]: the IC50 fell in the range of 5 to 10 nM in data set [1] (setting [9]) and 0.5 to 1 nM in data set [3]. Moreover, in data set [4] (setting [8]), the PASI score result was “++ (a score of greater than 5 and less than 6)”.

As to `[2H]C([2H])([2H])NC(=O)c1nnc(NC(=N)C2CC2)cc1Nc1cccc(-c2ncn(C)n2)c1OC` [Compound 1-1-1], the “Content level of IL-17F in skin” value in data set [2] (setting [10]) is reported as “D (an IL-17F content ranging from 300 pg/mL to 400 pg/mL)”. The PASI score result in data set [4] (setting [8]) is “+ (a score of ≥6)”.

`[2H]C([2H])([2H])NC(=O)c1nnc(NS(=O)(=O)C2CC2)cc1Nc1cccc(-c2ncn(C)n2)c1OC` [Compound 1-8]: the PASI score entry in data set [4] (setting [8]) is “+ (a score of ≥6)”.

Turning to `[2H]C([2H])([2H])NC(=O)c1nnc(NC(=O)C2CC2)cc1Nc1nccc(-c2ncn(C([2H])([2H])C#C)n2)c1OC` [Compound 8], the IC50 in data set [1] (Homo sapiens, PBMC) is < 1 nM; in data set [3], < 0.1 nM. The PASI score result in data set [4] (setting [7]) and in data set [4] (setting [8]) was “++++ (a score of less than or equal to 4)” in each case.

Turning to `[2H]C([2H])([2H])NC(=O)c1nnc(NC(=O)C=C)cc1Nc1cccc(-c2ncn(C)n2)c1OC` [Compound 1-9], the PASI score result in data set [4] (setting [8]) is recorded as “+ (a score of ≥6)”.

On to `[2H]C([2H])([2H])NC(=O)c1nnc(NC(=O)C2CC2)cc1Nc1cccc(-c2ncn(COCC[Si](C)(C)C)n2)c1OC` [Compound 1-3], for which the PASI score entry in data set [4] (setting [8]) is “++ (a score of greater than 5 and less than 6)”.

As to `[2H]C([2H])([2H])NC(=O)c1nnc(NC(=O)C2CC2)cc1Nc1cccc(-c2nnn(CC#C)n2)c1OC` [Compound 2-1B-1], the results for the IC50 in data set [1] (setting [9]) and in data set [3] were 5 to 10 nM and 0.1 to 0.5 nM, respectively. Further, the PASI score entry in data set [4] (setting [8]) was “++ (a score of greater than 5 and less than 6)”.

Turning to `[2H]C([2H])([2H])NC(=O)c1nnc(NC(=O)C2CC2)cc1Nc1cccc(-c2ncn(CCNC(C)=S)n2)c1OC` [Compound 1-4], the PASI score result in data set [4] (setting [8]) was “++ (a score of greater than 5 and less than 6)”.

Regarding `[2H]C([2H])([2H])NC(=O)c1nnc(NC(=O)C2CC2([2H])[2H])cc1Nc1nccc(-c2ncn(CC#C)n2)c1OC` (centres unmarked) [Compound 10], the IC50 in data set [1] (Homo sapiens, PBMC) is < 1 nM. Besides, the “effect on the activity of TYK2-JH2 (in words)” value in data set [3] is reported as “have inhibitory effects on the activity of TYK2-JH2”. Further, in data set [4] (setting [7]), the PASI score result is “++++ (a score of less than or equal to 4)”.

`[2H]C([2H])([2H])NC(=O)c1nnc(NC(=O)C2([2H])CC2)cc1Nc1nccc(-c2ncn(CC#C)n2)c1OC` [Compound 11]: the bioavailability – broadly, the share of a dose that reaches the circulation, judged against a reference dose that is usually intravenous – in data set [5] came out at 97.8%. Moreover, the half-maximal inhibitory concentration (IC50) in data set [1] (Homo sapiens, PBMC) was < 1 nM; in data set [3], < 0.1 nM. The “Content level of IL-17F in skin” value in data set [2] (setting [6]) is “A (an IL-17F content less than 30 pg/mL)”. Further, the “skin lesions in rats” value in data set [2] is “significantly reduced”. Moreover, the PASI score entry is given as “++++ (a score of less than or equal to 4)” in data set [4] (Test Example 2, same scheme as test example 1, day 7) and “++++ (a score of less than or equal to 4)” in data set [4] (setting [8]).
